Data published in patent US8652439B2, “Compositions of HSP60 peptides and viral antigens for vaccination and diagnosis” (priority 2005, dated 2014).

Tests used:
splenocytes [1] = test: Proliferation of splenocytes from mice immunized with p15 conjugates, stimulated in vitro with p15; type: in vivo; details: spleens 10 days after immunization; p15 25 μg/ml, 3 days
Description: (§1) Mice were immunized with the following peptides as described in Example 8 using the following peptides: p15 (SEQ ID NO:11), p32 (SEQ ID NO:13), Ec27-p15 ([…], SEQ ID NO:77), and Mock-p15 ([…], SEQ ID NO:80—the p431 peptide fused to p15).
(§2) Spleens were harvested 10 days after the immunization and splenocytes were cultured with p15 (25 μg/ml) for 3 days. Cell proliferation and IFNγ levels in the supernatants of spleen cell cultures were measured. Results are the average of 3 independent proliferation experiments. Ec27-Ep15* and Ec27-Ep15** are two identical but independent groups in the same experiment.

IFN-γ = IFN-γ secretion of splenocytes from mice immunized with p15 conjugates, stimulated in vitro with p15; type: in vivo; details: spleens 10 days after immunization; p15 25 μg/ml, 3 days
Description: as §1, §2

BALB/c lymph node cells = test: Proliferative response of lymph node cells to overlapping GroEL peptides after immunization with E. coli bacteria or GroEL; type: cell-based, BALB/c mice; details: mice immunized with E. coli bacteria or GroEL; peptides 20 μg/ml
lymph node cells = test: Proliferative response of lymph node cells after immunization with the Ec27 peptide; type: in vivo, mice
[2] = system: splenocytes from WNV-infected mice; test: Proliferation of splenocytes from WNV-infected mice after in vitro stimulation with peptides; type: cell-based; details: in vitro stimulation with peptide
WNV [3] = test: Protective efficacy of immunization against WNV challenge (mortality); type: in vivo, BALB/c mice
WNV [4] = test: Virus levels in brain after p32 immunization and WNV challenge (RT-PCR and plaque assay); type: in vivo, mice; details: day 7 after challenge with 10^6 pfu WNV; immunized 3 times
WNV-Ag [5] = test: ELISA of anti-WNV Abs in sera of immunized mice; type: in vivo; details: 7 days after 3rd immunization; sera 1:40
Description: FIG. 11. Anti-WNV Abs in the sera of mice immunized with different peptides or with WNV Ag. (A) Mice were immunized 3 times with the different peptides or WNV-Ag at 7 day intervals. Seven days after the 3rd immunization mice were bled and sera were tested as follows. Wells were coated with WNV-Ag (1:700 dilution). After blocking and washing, the different sera were added at 1:40 dilution and binding was detected as described in methods (ELISA). Results are the average of 4 independent ELISA experiments. Bars, ±SD. (B) Isotypes of Anti-WNV antibodies.
ELISA tests were performed according to the method described by Martin et al (Martin et al, 2000) with slight modifications. Briefly, microtiter plates were coated and incubated overnight at 4° C. with 100 μl of the different peptides (1 μg/well) or WNV antigen diluted 1:700 in coating buffer (NaHCO3, pH=9.6). After incubation, the coating buffer was decanted and the plates were washed twice in PBS containing 0.05% Tween 20 and 0.2% sodium azide (washing buffer). After blocking for 1 h with a 200 μl/wen of PBS containing 0.05% Tween 20 and 2.5% nonfat dry milk, the plates were washed 4 times in washing buffer and 100 μl of IVIG-IL or mouse sera at 1:40 dilution were added to each well (2-4 wells per sample). […] The color intensity was measured by ELISA-reader (Dynatec MR 5000) at the absorbance of 405 nm. […]

WNV-Ag [6] = test: Isotypes of anti-WNV antibodies (ELISA); type: in vivo, mice
Description: Plates were coated with the WNV-Ag diluted 1:700 in coating buffer. After overnight incubation at 4° C., blocking and washing, various dilutions of mouse sera were added in triplicates. Negative and positive controls of mouse sera were tested in each plate. Total IgG assessment was performed using HRP-Streptavidin-conjugated anti-mouse IgG (SouthernBiotech). For antibody isotype identification, incubation with biotin-conjugated anti-mouse IgG1, IgG2a, IgG2b, IgG3, IgA and IgM antibodies (PharMingen, San Diego, Calif.) was followed by incubation with 1:1000 diluted HRP-Streptavidin (Jackson Laboratories, West Grove, Pa.). After substrate addition the color intensity was measured by ELISA-reader at 405 nm.
Next, it was examined whether p32 immunization and sublethal infection with WNV induce similar isotypes of anti-WNV antibodies. WNV-Ag was used as the antigen in the ELISA plates.

splenocytes [7] = test: Proliferation of splenocytes from p32-immunized mice after in vitro stimulation; type: in vivo; details: in vitro stimulation with WNV antigen
IFNγ = IFNγ secretion of splenocytes from p32-vaccinated mice; type: in vivo; details: in vitro stimulation with WNV antigen
[8] = 3 immunizations, 10^6 pfu WNV, 21 days post challenge, 5 experiments
[9] = sera of p32-immunized versus WNV-infected mice

| Sequence | Proliferation of spleen cells in the presence of p15 (splenocytes [1]) | IFN-γ secretion of spleen cells in the presence of p15 (IFN-γ) | Proliferative response of draining LNC to GroEL peptide (BALB/c lymph node cells) | Proliferative response of lymph node cells of Ec27-immunized BALB/c mice (lymph node cells; 20 μg Ec27 in IFA s.c., 10 days later) | Proliferative response of mouse strains with different MHC haplotypes (lymph node cells; BALB/c, BALB/k, BALB/b, SJL) | Proliferation of T cells from WNV-infected mice [2] | Mortality (% deaths) (WNV [3]; [8]) | Mortality (dead of total) (WNV [3]; [8]) | Protective efficacy against WNV challenge (WNV [3]; summary of 5 experiments) | Virus levels in the brain (WNV [4]) | WNV-specific Abs in sera (WNV-Ag [5]) | WNV-specific IgA and IgG3 (WNV-Ag [6]; sera of p32-immunized and WNV-infected mice) | Anti-WNV IgG1 and IgG2a levels (WNV-Ag [6]; [9]) | WNV-specific IgG2b levels (WNV-Ag [6]; [9]) | WNV-specific IgM levels (WNV-Ag [6]; [9]) | Proliferation of splenocytes from immunized mice (splenocytes [7]) | IFNγ secretion of splenocytes from immunized mice (IFNγ) |
| --- | --- | --- | --- | --- | --- | --- | --- | --- | --- | --- | --- | --- | --- | --- | --- | --- | --- |
| KKARVEDALHATRAAVEEGV [Ec27] | did not induce significant proliferation | did not induce significant proliferation and IFN-γ secretion | highly immunogenic | responded the Ec27 peptide and to the whole GroEL molecule, but not to the control peptide AcR 259-271 | all four different mouse strains responded specifically | – | – | – | – | – | – | – | – | – | – | – | – |
| NEDQKIGIEIIKRALKILVTVNPFVSVATANS [p32] | – | – | – | – | – | proliferated in response to in vitro stimulation | (10%) | 2/21 | a high degree of protection | no virus was detected | high titer of WNV-specific Abs as compared to immunization with p15 alone | Neither IgA nor IgG3 specific for WNV were detected | similarly high | higher in sera from WNV-infected mice | higher in p32-immunized mice | proliferated in response to in vitro stimulation with WNV antigen | secretion of high levels of IFNγ |
